29 compounds from US11964953B2, “Substituted aminothiazoles as DGKzeta inhibitors for immune activation” (Bayer Aktiengesellschaft, priority 2020, dated 2024) can be followed below.

The structures appear in SMILES notation.

The target in the assay is human DGKζ (Homo sapiens (Human), UniProt Q13574). Put plainly: Human DGKζ kinase activity inhibition assay (ADP-Glo). Type of assay: biochemical. The following applies: in vitro human DGKζ kinase activity inhibition assay; read-out: IC50. Summed up: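 ADP-Glo luminescence, reflecting ADP produced, served as the readout of activity. Full-length human DGKζ, FLAG-tagged at the C-terminus and insect-cell expressed, was used; lipid substrate mix was sonicated with octyl-β-D-glucopyranoside in 50 mM MOPS pH 7.4.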
human DGKζ, sequence (Q13574 other isoform, or with tags, fused parts or gaps): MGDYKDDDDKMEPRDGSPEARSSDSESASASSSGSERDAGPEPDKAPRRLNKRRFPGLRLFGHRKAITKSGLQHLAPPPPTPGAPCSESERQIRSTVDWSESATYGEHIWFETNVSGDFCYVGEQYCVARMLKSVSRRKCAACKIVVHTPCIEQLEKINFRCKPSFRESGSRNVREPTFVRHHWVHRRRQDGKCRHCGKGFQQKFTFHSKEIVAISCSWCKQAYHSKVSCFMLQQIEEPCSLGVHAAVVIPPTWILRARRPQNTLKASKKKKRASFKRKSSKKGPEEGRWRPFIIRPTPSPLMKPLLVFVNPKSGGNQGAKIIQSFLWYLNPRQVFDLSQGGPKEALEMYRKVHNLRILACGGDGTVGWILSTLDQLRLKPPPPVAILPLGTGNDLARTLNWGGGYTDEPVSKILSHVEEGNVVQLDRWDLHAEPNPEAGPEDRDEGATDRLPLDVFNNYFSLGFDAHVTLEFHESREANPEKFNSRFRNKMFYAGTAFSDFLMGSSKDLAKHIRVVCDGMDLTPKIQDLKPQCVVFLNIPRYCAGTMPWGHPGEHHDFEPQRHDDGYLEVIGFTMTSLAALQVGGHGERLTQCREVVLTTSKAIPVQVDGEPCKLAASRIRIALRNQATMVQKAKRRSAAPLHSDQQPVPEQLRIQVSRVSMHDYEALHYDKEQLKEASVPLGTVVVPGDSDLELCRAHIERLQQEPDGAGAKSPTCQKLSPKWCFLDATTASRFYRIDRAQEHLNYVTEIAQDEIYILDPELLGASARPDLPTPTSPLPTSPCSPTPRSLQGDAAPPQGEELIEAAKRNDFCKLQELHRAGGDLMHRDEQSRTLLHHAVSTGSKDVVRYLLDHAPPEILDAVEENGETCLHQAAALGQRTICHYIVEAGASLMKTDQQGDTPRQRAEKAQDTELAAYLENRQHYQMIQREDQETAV
As to `CC(C(N)=O)N(c1nc(N)c(C(=O)c2ccccc2)s1)c1ccc(OC(F)F)cc1F` (racemic) [Example 241, rac-2-[N-(4-amino-5-benzoyl-thiazol-2-yl)-4-(difluoromethoxy)-2-fluoro-anilino]propanamide], the 50% inhibitory concentration (IC50) turned out to be 382 nM.
As for `CC(C(N)=O)N(c1nc(N)c(C(=O)c2ccccc2)s1)c1ccc(OC(F)F)cc1Cl` (racemic) [Example 242, rac-2-[N-(4-amino-5-benzoyl-thiazol-2-yl)-2-chloro-4-(difluoromethoxy)anilino]propanamide], the figure is 2030 nM.
The same measure for `COc1ccc(C(=O)c2sc(N(c3ccc(C(F)F)cc3)C(C)C(N)=O)nc2N)cc1` (racemic) [Example 243, rac-2-[N-[4-amino-5-(4-methoxybenzoyl)thiazol-2-yl]-4-(difluoromethyl)anilino]propanamide]: 51 nM; for `CC(C(N)=O)N(c1ccc(C(F)F)cc1)c1nc(N)c(C(=O)c2ccc(Cl)cc2)s1` (racemic) [Example 244, rac-2-[N-[4-amino-5-(4-chlorobenzoyl)thiazol-2-yl]-4-(difiuoromethyl)anilino]propanamide]: 30 nM.
The same measure for `CC(C(N)=O)N(c1ccc(C(F)F)cc1)c1nc(N)c(C(=O)c2ccc(OC(F)F)cc2)s1` (racemic) [Example 245, rac-2-[N-[4-amino-5-[4-(difluoromethoxy)benzoyl]thiazol-2-yl]-4-(difluoromethyl)anilino]propanamide]: 22 nM.
For `CC(C(N)=O)N(c1ccc(C(F)F)cc1)c1nc(N)c(C(=O)c2ccncc2)s1` (racemic) [Example 246, rac-2-[N-[4-amino-5-(pyridine-4-carbonyl)thiazol-2-yl]-4-(difluoromethyl)anilino]propanamide], the IC50 was 662 nM.
As for `CC(C(N)=O)N(c1ccc(C(F)F)cc1)c1nc(N)c(C(=O)c2ccc(OC(F)F)nc2)s1` (racemic) [Example 247, rac-2-[N-[4-amino-5-[6-(difluoromethoxy)pyridine-3-carbonyl]thiazol-2-yl]-4-(difluoromethyl)anilino]propanamide], the figure is 40 nM; as for `COc1ccc(C(=O)c2sc(N(c3ccc(OC(F)(F)F)nc3)C(C)C(N)=O)nc2N)cc1` (racemic) [Example 248, rac-2-[[4-amino-5-(4-methoxybenzoyl)thiazol-2-yl]-[6-(trifluoromethoxy)-3-pyridyl]amino]propanamide], 136 nM.
The same measure for `CC(C(N)=O)N(c1ccc(OC(F)(F)F)nc1)c1nc(N)c(C(=O)c2ccc(Cl)cc2)s1` (racemic) [Example 249, rac-2-[[4-amino-5-(4-chlorobenzoyl)thiazol-2-yl]-[6-(trifluoromethoxy)-3-pyridyl]amino]propanamide]: 120 nM; for `CC(C(N)=O)N(c1ccc(OC(F)(F)F)nc1)c1nc(N)c(C(=O)c2ccc(OC(F)F)cc2)s1` (racemic) [Example 250, rac-2-[[4-amino-5-[4-(difluoromethoxy)benzoyl]thiazol-2-yl]-[6-(trifluoromethoxy)-3-pyridyl]amino]propanamide]: 36 nM; for `CC(C(N)=O)N(c1ccc(OC(F)(F)F)nc1)c1nc(N)c(C(=O)c2ccc(OC(F)F)nc2)s1` (racemic) [Example 251, rac-2-[[4-amino-5-[6-(difluoromethoxy)pyridine-3-carbonyl]thiazol-2-yl]-[6-(trifluoromethoxy)-3-pyridyl]amino]propanamide]: 87 nM.
The same measure for `COc1ccc(C(=O)c2sc(N(c3ccc(OC(F)F)nc3)C(C)C(N)=O)nc2N)cc1` (racemic) [Example 252, rac-2-[[4-amino-5-(4-methoxybenzoyl)thiazol-2-yl]-[6-(difluoromethoxy)-3-pyridyl]amino]propanamide]: 106 nM; for `CC(C(N)=O)N(c1ccc(OC(F)F)nc1)c1nc(N)c(C(=O)c2ccc(Cl)cc2)s1` (racemic) [Example 253, rac-2-[[4-amino-5-(4-chlorobenzoyl)thiazol-2-yl]-[6-(difluoromethoxy)-3-pyridyl]amino]propanamide]: 59 nM; for `CC(C(N)=O)N(c1ccc(OC(F)F)nc1)c1nc(N)c(C(=O)c2ccc(OC(F)F)cc2)s1` (racemic) [Example 254, rac-2-[[4-amino-5-[4-(difluoromethoxy)benzoyl]thiazol-2-yl]-[6-(difluoromethoxy)-3-pyridyl]amino]propanamide]: 32 nM.
In the case of `CC(C(N)=O)N(c1ccc(OC(F)F)nc1)c1nc(N)c(C(=O)c2ccc(OC(F)F)nc2)s1` (racemic) [Example 255, rac-2-[[4-amino-5-[6-(difluoromethoxy)pyridine-3-carbonyl]thiazol-2-yl]-[6-(difluoromethoxy)-3-pyridyl]amino]propanamide], the IC50 worked out at 76 nM.
As for `CC(C(N)=O)N(c1ccc(F)cc1)c1nc(N)c(C(=O)c2ccc(NC(=O)OCc3ccccc3)nc2)s1` (racemic) [Example 256, rac-benzyl N-[5-[4-amino-2-(N-(2-amino-1-methyl-2-oxo-ethyl)-4-fluoro-anilino)thiazole-5-carbonyl]-2-pyridyl]carbamate], the figure is 9 nM.
Take `CCOC(=O)c1ccc(C(=O)c2sc(N(c3ccc(Cl)c(F)c3)C(C)C(N)=O)nc2N)cc1` (racemic) [Example 258, rac-Ethyl 4-[4-amino-2-(N-(2-amino-1-methyl-2-oxo-ethyl)-4-chloro-3-fluoro-anilino)thiazole-5-carbonyl]benzoate]: the concentration for half-maximal inhibition (IC50) stood at 19 nM.
The same measure for `CCOC(=O)C(C)(C)Oc1ccc(C(=O)c2sc(N(c3ccc(F)cc3)C(C)C(N)=O)nc2N)cc1` (racemic) [Example 259, Rac-Ethyl 2-[4-[4-amino-2-(N-(2-amino-1-methyl-2-oxo-ethyl)-4-fluoro-anilino)thiazole-5-carbonyl]phenoxy]-2-methyl-propanoate]: 19 nM.
The same measure for `CC(C(N)=O)N(c1ccc(F)cc1)c1nc(N)c(C(=O)c2ccc(C(=O)NC3CCCCC3)cc2)s1` (racemic) [Example 260, rac-4-[4-amino-2-(N-(2-amino-1-methyl-2-oxo-ethyl)-4-fluoro-anilino)thiazole-5-carbonyl]-N-cyclohexyl-benzamide]: 29 nM; for `CC(C)NC(=O)c1ccc(C(=O)c2sc(N(c3ccc(F)cc3)C(C)C(N)=O)nc2N)cc1` (racemic) [Example 261, rac-4-[4-amino-2-(N-(2-amino-1-methyl-2-oxo-ethyl)-4-fluoro-anilino)thiazole-5-carbonyl]-N-isopropyl-benzamide]: 90 nM; for `CC(C(N)=O)N(c1ccc(F)cc1)c1nc(N)c(C(=O)c2ccc(C(=O)NCc3ccccc3)cc2)s1` (racemic) [Example 262, rac-4-[4-amino-2-(N-(2-amino-1-methyl-2-oxo-ethyl)-4-fluoro-anilino)thiazole-5-carbonyl]-N-benzyl-benzamide]: 6 nM.
The same measure for `COCCNC(=O)c1ccc(C(=O)c2sc(N(c3ccc(F)cc3)C(C)C(N)=O)nc2N)cc1` (racemic) [Example 264, rac-4-[4-amino-2-(N-(2-amino-1-methyl-2-oxo-ethyl)-4-fluoro-anilino)thiazole-5-carbonyl]-N-(2-methoxyethyl)benzamide]: 376 nM; for `CC(C(N)=O)N(c1ccc(F)cc1)c1nc(N)c(C(=O)c2ccc(C(=O)NC3CC3)cc2)s1` (racemic) [Example 266, rac-4-[4-amino-2-(N-(2-amino-1-methyl-2-oxo-ethyl)-4-fluoro-anilino)thiazole-5-carbonyl]-N-cyclopropyl-benzamide]: 287 nM; for `CC(C(N)=O)N(c1ccc(F)cc1)c1nc(N)c(C(=O)c2ccc(C(=O)NC3CCCC3)cc2)s1` (racemic) [Example 267, rac-4-[4-amino-2-(N-(2-amino-1-methyl-2-oxo-ethyl)-4-fluoro-anilino)thiazole-5-carbonyl]-N-cyclopentyi-benzamide]: 63 nM.
As for `CC(C(N)=O)N(c1ccc(Cl)c(F)c1)c1nc(N)c(C(=O)c2ccc(C(=O)NCCOc3ccccc3)cc2)s1` (racemic) [Example 268, rac-4-[4-amino-2-(N-(2-amino-1-methyl-2-oxo-ethyl)-4-chloro-3-fluoro-anilino)thiazole-5-carbonyl]-N-(2-phenoxyethyl)benzamide], the IC50 was found to be 3 nM.
The same measure for `CC(C(N)=O)N(c1ccc(Cl)c(F)c1)c1nc(N)c(C(=O)c2ccc(C(=O)NCCOC(F)(F)F)cc2)s1` (racemic) [Example 269, rac-4-[4-amino-2-(N-(2-amino-1-methyl-2-oxo-ethyl)-4-chloro-3-fluoro-anilino)thiazole-5-carbonyl]-N-[2-(trifluoromethoxy)ethyl]benzamide]: 12 nM.
As for `CC(C(N)=O)N(c1ccc(Cl)c(F)c1)c1nc(N)c(C(=O)c2ccc(C(=O)NCCOC(F)F)cc2)s1` (racemic) [Example 270, rac-4-[4-amino-2-(N-(2-amino-1-methyl-2-oxo-ethyl)-4-chloro-3-fluoro-anilino)thiazole-5-carbonyl]-N-2-(difluoromethoxy)ethyl]benzamide], the figure is 13 nM; as for `CC(C(N)=O)N(c1ccc(Cl)c(F)c1)c1nc(N)c(C(=O)c2ccc(C(=O)NCCOC(C)(C)C)cc2)s1` (racemic) [Example 271, rac-4-[4-amino-2-(N-(2-amino-1-methyl-2-oxo-ethyl)-4-chloro-3-fluoro-anilino)thiazole-5-carbonyl]-N-(2-tert-butoxyethyl)benzamide], 18 nM; as for `COCCNC(=O)c1ccc(C(=O)c2sc(N(c3ccc(Cl)c(F)c3)C(C)C(N)=O)nc2N)cc1` (racemic) [Example 272, rac-4-[4-amino-2-(N-(2-amino-1-methyl-2-oxo-ethyl)-4-chloro-3-fluoro-anilino)thiazole-5-carbonyl]-N-(2-methoxyethyl)benzamide], 39 nM.
